For twelve compounds, IC50 results are on record in patent publication US12448382B2, “Heterocyclic compounds for mediating tyrosine kinase 2 activity” (GUANGZHOU INNOCARE PHARMA TECH CO., LTD., priority 2019, dated 2025).

Test [1] deals with T1, human recombinant JAK2 protein (Homo sapiens, UniProt O60674).
T1 construct: purchased Carna Biosciences 08-045
Briefly: JAK2 Inhibition Assay (HTRF kinase assay). The format is biochemical. The settings on record: human recombinant JAK2, 2.5 μM ATP substrate solution. Here is the method: The effect of the compounds of the present invention on the enzymatic activity of JAK2 was assessed by detecting the substrate phosphorylation level in a kinase reaction using the HTRF kinase assay detection kit (Cisbio, Cat. No. 62TK0PEC).
(§1) The experimental method is generally described below:
A reaction buffer contained the following components: an enzyme reaction buffer (1×), 5 mM MgCl2, 1 mM DTT and 0.01% Brij35 from the kit. A JAK2 kinase solution contained a human recombinant JAK2 protein (Carna Biosciences, 08-045) diluted in the reaction buffer to 0.15 ng/μL. A substrate reaction solution contained 2.5 μM ATP and 0.25 μM of a biotinylated tyrosine kinase substrate from the kit in the reaction buffer. A detection solution contained 0.1 ng/μL Eu^3+-labeled cage antibody (Cisbio, 61T66KLB) and 12.5 nM streptavidin-labeled XL665 (Cisbio, 610SAXLB) in the reaction buffer.
(§2) The test compound was dissolved in DMSO to 10 μM, followed by a serial 4-fold dilution with DMSO to a minimum concentration of 0.061 nM. Each concentration was further diluted 40-fold with the reaction buffer.
To a 384-well assay plate (Corning, 3674) were added 4 μL of compound solution and 2 μL of JAK2 kinase solution. The mixture was mixed and incubated at room temperature for 15 minutes, and then added with 4 μL of the substrate reaction solution. After further incubation at room temperature for 30 minutes, the reaction mixture was added with an equal volume of 10 μL detection solution and allowed to stand at room temperature for 30 minutes. An Envision plate reader (Perkin Elmer) was then used to measure the progress of the reaction at 620 nm and 665 nm. The ratio of absorbances at 665 nm and 620 nm was positively correlated with the degree of substrate phosphorylation, therefore the activity of JAK2 kinase was detected. In the experiment, the group without JAK2 kinase protein was treated as the 100% inhibition group, and the group with JAK2 kinase protein but not the test compound was treated as the 0% inhibition group. The percentage of inhibition on JAK2 kinase activity by the test compound was calculated using the following formula: Percentage of inhibition=100−100*(ratiocompound−ratio100% inhibition)/(ratio0% inhibition−ratio100% inhibition)
The IC50 value of the test compound was calculated from 8 concentration points using the XLfit softwere (ID Business Solutions Ltd., UK) by the following formula: Y=Bottom+(Top−Bottom)/(1+10^((log IC50−X)×slope factor))
Where Y was the percentage of inhibition, X was the logarithm of the concentration of the test compound. Bottom was the bottom plateau value of the S-shaped curve, Top was the top plateau value of the S-shaped curve, and slope factor was the slope coefficient of the curve.
For orientation: TR-FRET usually uses a lanthanide donor and a delayed reading to cut background.

In test [2] the target is T2, human recombinant TYK2 protein (Homo sapiens, UniProt P29597).
T2 construct: purchased Carna Biosciences 08-147
T2 sequence (P29597 871-1187 limits assumed): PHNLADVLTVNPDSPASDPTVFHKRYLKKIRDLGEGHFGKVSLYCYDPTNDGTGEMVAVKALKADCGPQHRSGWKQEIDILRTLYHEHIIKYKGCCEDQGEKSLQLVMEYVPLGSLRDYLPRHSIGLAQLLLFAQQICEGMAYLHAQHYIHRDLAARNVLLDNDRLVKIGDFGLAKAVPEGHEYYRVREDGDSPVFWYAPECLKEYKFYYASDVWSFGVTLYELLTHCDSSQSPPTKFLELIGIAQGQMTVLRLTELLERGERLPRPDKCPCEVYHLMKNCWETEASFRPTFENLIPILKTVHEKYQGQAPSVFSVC
Nature of the test: TYK2 Inhibition Assay (HTRF kinase assay). Type of test: biochemical. The following applies: human recombinant TYK2, 11.25 μM ATP substrate solution. Here is the method:
The effect of the compounds of the present invention on the enzymatic activity of TYK2 was assessed by detecting the substrate phosphorylation level in a kinase reaction using the HTRF kinase assay detection kit (Cisbio, Cat. No. 62TK0PEC).
as §1
A reaction buffer contained the following components: an enzyme reaction buffer (1×), 5 mM MgCl2 mM DTT and 0.01% Brij35 from the kit. A TYK2 kinase solution contained human recombinant TYK2 protein (Carna Biosciences, 08-147) diluted in the reaction buffer to 0.25 ng/μL. A substrate reaction solution contained 11.25 μM ATP and 0.5 μM of a biotinylated tyrosine kinase substrate from the kit in the reaction buffer. A detection solution contained 0.1 ng/μL Eu^3+-labeled cage antibody (Cisbio, 61T66KLB) and 25 nM streptavidin-1 added XL665 (Cisbio, 610SAXLB) in the reaction buffer.
as §2
To a 384-well assay plate (Corning, 3674) were added 4 μL of compound solution and 2 μL of TYK2 kinase solution. The mixture was mixed and incubated at room temperature for 15 minutes, and then added with 4 μL of the substrate reaction solution. After further incubation at room temperature for 40 minutes, the reaction mixture was added with an equal volume of 10 μL detection solution and allowed to stand at room temperature for 30 minutes. An Envision plate reader (Perkin Elmer) was then used to measure the progress of the reaction at 620 nm and 665 nm. The ratio of absorbances at 665 nm and 620 nm was positively correlated with the degree of substrate phosphorylation, therefore the activity of TYK2 kinase was detected. In the experiment, the group without TYK2 kinase protein was treated as the 100% inhibition group, and the group with TYK2 kinase protein but not the test compound was treated as the 0% inhibition group. The percentage of inhibition on TYK2 kinase activity by the test, compound was calculated using the following formula: Percentage of inhibition=100−100*(ratiocompound−ratio100% inhibition)/(ratio0% inhibition−ratio100% inhibition)
The IC50 value of the test compound was calculated from 8 concentration points using the XLfit software (ID Business Solutions Ltd., UK) by the following formula: Y=Bottom+(Top−Bottom)/(1+10^((log IC50−X)slope factor))
Where Y was the percentage of inhibition, X was the logarithm of the concentration of the test compound, Bottom was the bottom plateau value of the S-shaped curve, Top was the top plateau value of the S-shaped curve, and slope factor was the slope coefficient of the curve.

T1 sequence (O60674 826-1132 limits assumed): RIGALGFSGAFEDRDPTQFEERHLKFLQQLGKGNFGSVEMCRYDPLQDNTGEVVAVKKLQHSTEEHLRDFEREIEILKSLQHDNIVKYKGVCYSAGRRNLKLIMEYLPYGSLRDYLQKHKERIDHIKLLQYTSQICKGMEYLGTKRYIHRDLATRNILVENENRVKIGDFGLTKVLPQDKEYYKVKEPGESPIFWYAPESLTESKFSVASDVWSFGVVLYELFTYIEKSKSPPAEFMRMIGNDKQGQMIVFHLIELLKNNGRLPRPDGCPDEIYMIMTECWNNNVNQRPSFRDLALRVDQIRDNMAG

The IC50 is the midpoint of a concentration-inhibition curve. `C[C@@]12CN(C(=O)C3CC3)C[C@]1(C)CN(c1ccnc(Nc3ccc(C(=O)O)cc3)n1)C2` [Compound 2]: the half-maximal inhibitory concentration (IC50) in test [1] came to 478 nM; in test [2], 62 nM.
Turning to `Cn1cc(Nc2ncc(Cl)c(N3C[C@]4(C)CN(Cc5ncn(C)n5)C[C@]4(C)C3)n2)cn1` [Compound 77, 5-chloro-4-((3aR,6aS)-3a,6a-dimethyl-5-((1-methyl-1H-1,2,4-triazol-3-yl)methyl)hexahydropyrrolo[3,4-c]pyrrol-2(1H)-yl)-N-(1-methyl-1H-pyrazol-4-yl)pyrimidin-2-amine], the 50% inhibitory concentration (IC50) is 136 nM in test [1] and 30 nM in test [2].
`CCNC(=O)c1ccc(Nc2nccc(N3C[C@]4(C)CN(C(=O)C5CC5)C[C@]4(C)C3)n2)cc1` [Compound 3]: the IC50 in test [1] came to 113 nM; in test [2] it was 23 nM.
For the compound `Cn1cc(Nc2nccc(N3C[C@]4(C)CN(C(=O)C(F)(F)F)C[C@]4(C)C3)n2)cn1` [Compound 4, 1-((3aR,6aS)-3a,6a-dimethyl-5-(2((1-methyl-1H-pyrazol-4-yl)amino)pyrimidin-4-yl)hexahydropyrrolo[3,4-c]pyrrol-2(1H)-yl)-2,2,2-trifluoroethan-1-one], the values for the IC50 in test [1] and in test [2] were 126 nM and 49 nM, respectively.
In the case of `Cn1cc(Nc2ncc(Cl)c(N3C[C@]4(C)CN(C(=O)C5CNC5)C[C@]4(C)C3)n2)cn1` [Compound 38, azetidin-3-yl((3aR,6aS)-5-(5-chloro-2-((1-methyl-1H-pyrazol-4-yl)amino)pyrimidin-4-yl)-3a,6a-dimethylhexahydropyrrolo[3,4-c]pyrrol-2(1H)-yl)methanone], the figures for the IC50 in test [1] and in test [2] were 50 nM and 43 nM, respectively.
For the compound “5-chloro-4-((3aR,6aS)-3a,6a-dimethyl-5-((1-methyl-IH-pyrazol-4-yl)methyl)hexahydropyrrolo[3,4-c]pyrrol-2(1H)-yl)-N-(1-methyl-1H-pyrazol-4-yl)pyrimidin-2-amine [Compound 76]”, the IC50 was 475 nM in test [1] and 149 nM in test [2].
Turning to `Cc1cc(Nc2ncc(Cl)c(N3C[C@]4(C)CN(C(=O)C5CC5)C[C@]4(C)C3)n2)no1` [Compound 93], the IC50 in test [1] is 91 nM; in test [2] it was 158 nM.
For `Cn1cc(Nc2ncc(Cl)c(N3C[C@]4(C)CN(Cc5ccn(C)n5)C[C@]4(C)C3)n2)cn1` [Compound 75, 5-chloro-4-((3aR,6aS)-3a,6a-dimethyl-5-((1-methyl-1H-pyrazol-3-yl)methyl)hexahydropyrrolo[3,4-c]pyrrol-2(1H)-yl)-N-(1-methyl-1H-pyrazol-4-yl)pyrimidin-2-amine], the IC50 in test [1] was 325 nM; in test [2] it was 98 nM.
Consider `COc1cnc(Nc2cnn(C)c2)nc1N1C[C@]2(C)CN(C(=O)CC#N)C[C@]2(C)C1` [Compound 97, 3-((3aR,6aS)-5-(5-methoxy-2-((1-methyl-1H-pyrazol-4-yl)amino)pyrimidin-4-yl)-3a,6a-dimethylhexahydropyrrolo[3,4-c]pyrrol-2(1H)-yl)-3-oxopropanenitrile], for which the IC50 in test [1] stood at 8.1 nM; in test [2] it was 56 nM.
On to `Cn1cc(Nc2nccc(N3C[C@]4(C)CN(C(=O)C5CC5(F)F)C[C@]4(C)C3)n2)cn1` (stereo partly drawn) [Compound 5, (2,2-difluorocyclopropyl)((3aR,6aS)-3a,6a-dimethyl-5-(2-((1-methyl-1H-pyrazol-4-yl)amino)pyrimidine-4-yl)hexahydropyrrolo[3,4-c]pyrrole-2(1H)-yl)methanone], for which the IC50 amounted to 82 nM in test [1] and 75 nM in test [2].
Taken in the same sequence, the figures for `CCNC(=O)c1ccc(Nc2ncc(F)c(N3C[C@H]4CN(C(=O)C5CC5(F)F)C[C@H]4C3)n2)cc1` (stereo partly drawn) [Compound 9] were 38 nM and 13 nM.
Regarding `Cn1cc(Nc2ncc(Cl)c(N3C[C@]4(C)CN(CCO)C[C@]4(C)C3)n2)cn1` [Compound 49, 2-((3aR,6aS)-5-(5-chloro-2-((1-methyl-1H-pyrazol-4-yl)amino)pyrimidin-4-yl)-3a,6a-dimethylhexahydropyrrolo[3,4-c]pyrrol-2(1H)-yl)ethan-1-ol], the half-maximal inhibitory concentration (IC50) came to 71 nM in test [1] and 52 nM in test [2].
